Reference: patent publication US12553889B2, “Small molecules targeting the intrinsically disordered structural ensemble of α-synuclein protect against diverse α-synuclein mediated dysfunctions” (The Regents of the University of California, priority 2019, dated 2026)

What was measured:
αSyn = αSyn split NanoBit luciferase (Nluc) oligomerization assay; type: biochemical, human; conditions: 100 μM compound, 10 μM of each tagged αSyn; for activity in NanoBit complementation αSyn oligomerization assay: full time-course
Method: Ten μM αSyn-LgBiT, 10 μM αSyn-SmBiT, and Hsp70 (at 0, 10, or 30 μM), 1 mM MgCl2 and 1 mM ADP were mixed in PBS at pH 7.4 and incubated at 37° C. in a thermal cycler (BioRad DNA Engine PTC-200). At 0, 3, 6, 12 and 24 hours. The NanoBit luciferase activity was quantified using a NanoFuel® GLOW Assay for Oplophorus Luciferases (NanoLight) according to the manufacturer's instructions and read on SpectraMax L Microplate Reader (Molecular Devices) with an 8 minute delay after the addition of substrate and 1 sec integration time reading each well. The luciferase activity was normalized to the reaction without Hsp70 at 24 hour time point.
• 1. αSyn-LgBiT or LgBiT is mixed with αSyn-SmBiT at 10 μM of each (PBS pH 7.4); • 2. Incubate at 37 degree for 24 hours in PCR machine; • 3. Take 10 μL samples at 0/3/6/12/24 hours; • 4. Luminescence measurement is done using Luminometor (with injector) using h-CTZ (40 uM), 2 sec delay, 3 sec integration. Protocol: • 1. αSyn-LgBiT (10 uM) and αSyn-SmBiT (10 uM) are mixed in PBS buffer (pH 7.4); • 2. The reaction mixture is incubated in 37° C. incubator either being shaken (1000 rpm) or still; • 3. Samples are taken from the reaction at 0/3/12/24/36/48/72/96/120/144 h for ThT and Nluc assays; NLuc Assay:
• 1. Mix fusion proteins in PBS buffer (pH 7.4) to create the following three master mixes:
• 2. Dispense 10 μL protein master mix into 384-well plate (Greiner, 781904) using Mantis; • Col 1 & 23: Positive control • Col & 24: Negative control • Col 3-22: Reactions • 3. […] Seal plates using sticky foil (E&K Scientific T790080); • 5. Incubate the sealed plates at 37° C. with heat blocks above and beneath the sealed plates, use dummy plates around the reaction plate, incubate at 37° C. incubator in room N401 for 0-24 h; Day 2. I. Prepare the Plates and Substrate • 6. Cool the plates at room temp for 30 min after 24-hour incubation; • 7. Spin the plates at 500×g for 1 min; • 8. Make substrate mix (NanoLight Cat #325), keep it in darkness; II. Prepare the Plate Reader • 9. Turn on SpectraMaxL, make sure the aperture is in the right position (96/384 well):
To change: Control>Change Aperture>Lift the top panel>Press down the button and turn it to the right position>Put the panel down • 10. Put the P-injector tube into the H2O bottle, wash the injector: Control>Prime P-injector for 30× injections • 11. Remove the P-injector and leave it in the air, then empty the injector: Control>Prime P-injector for 30× injections; • 12. Put the P-injector from the substrate tube, prime the injector: Control>Prime P-injector for 20× injections III. Read the Plates • 13. Nluc assay: • Sample vol: 10 μl (dispensed on day 1) • Substrate vol: 25 μl (NanoLight Cat #325)
The SpectraMaxL will do two rounds of reads, the first round will inject substrates, the second round will read entire 384-well plate and make sure the interval between inject and read for each well is exactly the same (in this protocol, the interval is 8 min exactly)

[1] = system: BACE, GST and CAII control proteins; experiment: Biacore 4000 SPR binding specificity (pb-index, control proteins); conditions: 100 μM
Method: The binding specificity of 576755 and its analogues was assessed by testing their ability to bind to αSyn versus a set of control proteins: Beta-Site Amyloid Precursor Protein Cleaving Enzyme 1 (BACE), Glutathione-S transferase (GST) and Carbonic Anhydrase (CAII). The binding data was merged into a pb-index, as discussed in more detail below. Compounds were tested at 100 μM using the Biacore 4000 instrument as described below. […] The percent RMax (% Rmax) for αSyn and the average % Rmax for the control proteins (pb-index) were calculated described below. […] The remaining 576755-analogues show no reaction with the control proteins and thus have improved specificity of binding.
Preparation of off-target protein sensor chips. […]
Surface Plasmon Resonance Measurements. […] Time-dependent binding curves were monitored simultaneously. […] The time-dependent binding curves were monitored simultaneously. […]
SPR Data Evaluation. The obtained data were quality controlled and evaluated using the manufacturers Evaluation Software as described previously (Regnström, K. et al. (2013)). Data were exported into Microsoft Excel and further analyzed as follows: The binding levels of running buffer injections were used to calculate the background noise level (>three-fold σ). All binding level data was calculated by subtracting the background noise level and adjustment to molecular weight (% Rmax). […]

Compound | impact relative to 576755 in NanoBit complementation assay (αSyn) | activity in NanoBit complementation αSyn oligomerization assay (αSyn) | binding to control proteins (pb-index versus % Rmax of αSyn binding) [1]
CNC(=O)c1cc(O)ccc1NC [Compound 581858, 2-methylamino-5-hydroxy-N-methylbenzamide] | slightly less impact than compound 576755 | active | 
CNC(=O)c1cc(O)ccc1N [Compound 576755, 2-amino-5-hydroxy-N-methylbenzamide] |  | active | some non-specific binding to the control proteins
CNC(=O)c1cc(O)ccc1O [Compound 583854, 2,5-dihydroxy-N-methylbenzamide] |  | active | 
CNC(=O)c1cc(O)ccc1N(C)C [Compound 581823, 2-dimethylamino-5-hydroxy-N-methylbenzamide] |  | active | 
